For the test, the target named is T1, human LH-RH receptor (Homo sapiens, UniProt P30968).
T1 construct: cell membrane fraction or whole cells
T1 sequence (P30968 1-328): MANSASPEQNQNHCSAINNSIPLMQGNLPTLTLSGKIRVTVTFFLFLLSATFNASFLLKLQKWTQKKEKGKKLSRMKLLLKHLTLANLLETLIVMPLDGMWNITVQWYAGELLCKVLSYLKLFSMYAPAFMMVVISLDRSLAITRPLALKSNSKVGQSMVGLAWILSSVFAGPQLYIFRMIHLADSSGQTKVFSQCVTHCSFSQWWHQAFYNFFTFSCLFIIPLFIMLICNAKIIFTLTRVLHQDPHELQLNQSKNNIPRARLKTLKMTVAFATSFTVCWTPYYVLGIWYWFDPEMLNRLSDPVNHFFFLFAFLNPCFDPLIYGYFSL
The experiment in a line: [125I]-leuprorelin binding inhibition, CHO cell membrane fraction. As to conditions: 2 μl of 2 mM compound in 60% DMSO added to 188 μl of 200 μg/ml membrane fraction with 10 μl of 3.6 nM [125I]-leuprorelin; 25° C., 60 minutes. Here is the method:
The human LH-RH receptor expression cells (10^9 cells) obtained in Example 2 were suspended in phosphate buffered saline containing 5 mM EDTA (PBS-EDTA), and centrifuged at 100×g for 5 minutes. To cell pellets, 10 ml of a cell homogenating buffer (10 mM NaHCO3, 5 mM EDTA, pH 7.5) was added, followed by homogenization with a Polytron homogenizer. After centrifugation at 400×g for 15 minutes, the supernatant was placed in an ultracentrifugal tube, and centrifuged at 100,000×g for 1 hour to obtain a cell membrane fraction precipitate. This precipitate was suspended in 2 ml of an assay buffer, and centrifuged at 100,000×g for 1 hour. The cell membrane fraction recovered as a precipitate was suspended in 20 ml of the assay buffer again. The suspension was dispensed and stored at -80° C. It was defrosted at every time of use. […]
Using the human LH-RH receptor expression CHO cell membrane fraction, reaction was conducted at 25° C. for 60 minutes. […] After the filtration, the radioactivity of [^125 I]-leuprorelin left on the filter was measured with a gamma-ray counter.
The binding inhibition rate of each sample to be tested was determined according to the following equation: [formula] wherein SB represents the radioactivity when the compound is added, TB represents the maximum binding radioactivity, and NSB represents the non-specific binding radioactivity.

Experimental findings from US6117645A, “Human LH-RH receptor expression cells and use thereof” (Takeda Chemical Industries, Ltd., priority 1994, dated 2000) are described below.

For orientation: inhibition means the change of the read-out against control, counted positive when it falls. Read a low inhibition as a weak effect. Turning to `CCOC(=O)c1cn(Cc2ccccc2OC)c2sc(-c3ccc(OC)cc3)c(C)c2c1=O` [Reference Example 9], the inhibition at 2000 µM (stock) was 67%.
